Data: patent US20230399378A1, “PEPTIDE-BASED DELIVERY OF AGENTS” (THE FLOREY INSTITUTE OF NEUROSCIENCE AND MENTAL HEALTH, priority 2020, published 2023)
Square brackets hold non-standard residues; d marks the D form. Side chains are listed from the residue outwards. Peptide text beside a SMILES is read from it. PMO = not defined here; AEEA = NCCOCCOCC(=O)O; Ahx = NCCCCCC(=O)O; Mpa = O=C(O)CCS

Experiments:
[1] = Serum stability in 50% human serum at 37 °C (RP-HPLC, one-phase decay half-life); conditions: for half-life at 500 µM: human, serum (50% human serum)
Protocol: Serum stability analysis was conducted for each peptide (7×50 nmol) shown in Table 3 in 50% human serum (100 μL) at 37° C. At the end of each time point (0, 10, 30, 60, 120, 240, and 480 min), 1 M guanidine hydrochloride solution (200 μL) and ice-cold acetonitrile (600 μL) were added, and the serum-peptide solution was centrifuged at 14000 g for 10 min. The supernatant was lyophilised and redissolved in water (200 μL). All samples were analysed by RP-HPLC in the presence of phenol (50 nmol) as an internal standard, using water and acetonitrile containing 0.1% TFA, with a gradient of 10-80% acetonitrile over 30 min, and a flow rate of 1.5 mL/min. The percentage of peptide remaining was measured based on the area under curve. The percentage of peptide remaining versus time data was fitted to a non-linear one-phase exponential decay model in GraphPad Prism 9.2.0 to determine the half-life for each peptide.

SMN2 = SMN2 splice-switching for exon 7 inclusion by RT-qPCR in SMA Type I patient-derived fibroblasts (Example 2); assay type: cell-based, human; conditions: for level of exon-7 inclusion activity (full length SMN2/HPRT1, normalised to untreated control set to 1): treated 4 hrs, then 20 hrs growth medium, mean±SEM; for exon-7 inclusion activity, change in words: 0.5 μM and 1 μM, versus comparator
Source text: FIG. 3. (A) SMN2 pre-mRNA exon-7 skipping and production of 80-90% SMN2Δ7 mRNA transcripts. Peptide-PMO binding to Intron-splicing silencer (ISS-N1) and restoration of SMN2 splicing and production of full-length SMN2 mRNA transcripts. The positions of forward and reverse primers highlighted on full-length mRNA. (B)-(C) Effect of administration of peptides linked to PMO for SMN2 exon 7 inclusion, measured as change in the level of full length SMN2/HPRT1 in SMA patient-derived fibroblasts, each at two concentrations, 0.5 μM and 1 μM (or 1 μM and 5 μM in the case of PMO alone). UT, untreated. (B) For PMO constructs, from left to right: PMO; ApoE(141-150)-PMO; ApoE(133-150)-PMO. (C) For PMO constructs, from left to right: PMO; HA2-PMO; GALA-PMO; NLS-PMO; ApoE(141-150)-PMO; HA2-ApoE(141-150)-PMO; GALA-ApoE(141-150)-PMO; NLS-ApoE(141-150)-PMO; H4-ApoE(141-150)-PMO; A4-ApoE(141-150)-PMO. *P<0.05,**P<0.001, ***P<0.0001 cf. Untreated (control) and PMO (1 and 5 μM); #P<0.001 cf. GALA-/NLS-/H4-ApoE(141-150)-PMO (1 μM), ^<0.001 cf. ApoE(133-150)-PMO (0.5 and 1 μM), ^OP<0.001 cf. ApoE(141-150)-PMO (1 μM), ^&P<0.05 cf.
The inventors then evaluated cellular uptake and activity of these peptide-PMO conjugates in SMA Type I patient-derived fibroblasts with two copies of SMN2. Efficiency of uptake was assessed by RT-qPCR using SMN2 splice-switching for exon 7 inclusion (see FIG. 3A).
SMA Type I patient-derived fibroblasts (SMN2^+/+, GM03813, Coriell Cell Repositories) were maintained in Dulbecco's Modified Eagle's Medium (DMEM), supplemented with 10% foetal bovine serum (FBS), 1% Penicillin/Streptomycin and 1% L-glutamine (L-glu) at 37° C. Cells were plated in 6-well plates at a density of 3×10^5/well in 6 well plates one day prior to treatment with PMO and peptide-PMO conjugates. Cells used were from passage 8-22. PMO and the peptide-PMO conjugates were dissolved in nuclease-free water and diluted to appropriate concentrations in Opti-MEM reduced serum medium. Cells were treated for 4 hrs at 37° C. The transfection medium was then removed and replaced with growth medium in which the cells were incubated for 20 hrs.
Cells were washed with PBS and total cellular RNA was extracted using Trizol (TRI Reagent®, Sigma) according to the manufacturer's instructions (Life Technologies). 400 ng purified RNA was reverse transcribed into cDNA using BioRad iScript Reverse Transcription Supermix kit according to the manufacturer's instructions. The reverse transcription was performed using the Veriti Thermal Cycler (ThermoFisher Scientific) with the thermal cycling conditions: 25° C. for 5 min, 46° C. for 20 min, 95° C. for 1 min followed by a 4° C. holding period.
Quantitative PCR (20 ng cDNA/well) was carried out in a 96-well plate in triplicate using SsoAdvanced Universal SYBR Green Supermix on a Biorad CFX96 Touch™ Real-Time PCR detection system. The amplification was carried out using full-length SMN2-specific primers: Ex-6 Forward 5′-[…]-3′ (SEQ ID NO:10) and Ex7-8 reverse 5′[…]-3′ (SEQ ID NO:11). Human HPRT1 was used as the internal reference gene with forward primer sequence 5′-[…]-3′ (SEQ ID NO:12) and reverse primer sequence 5′-[…]-3′ (SEQ ID NO:13). The ΔΔCt method was used to correct the Ct values against the HPRT1 Ct values. The values obtained were normalised to the untreated control values which were set to 1. Statistical analysis was carried out using one-way ANOVA with post-hoc Bonferroni for multiple groups comparison (GraphPad Prism V.8, 2018). All data are expressed as mean±SEM from at least three independent experiments with p<0.05 considered significant.

half-life at 500 µM [1] [min] | Molecule | exon-7 inclusion activity, change in words (SMN2) | also measured
24 | CC[C@@H](C)[C@@H](NC(=O)[C@@H](C)NC(=O)[C@@H](Cc1c[nH]cn1)NC(=O)[C@@H](Cc1ccccc1)NC(=O)[C@H](NC(=O)[C@@H](Cc1c[nH]cn1)NC(=O)CNC(=O)CNC(=O)[C@@H](Cc1c[nH]c2ccccc12)NC(=O)[C@@H](Cc1c[nH]cn1)NC(=O)COCCOCCNC(=O)CCS)[C@H](C)CC)C(=O)N[C@H](C)C(=O)N[C@H](Cc1c[nH]cn1)C(=O)N[C@H](Cc1ccccc1)C(=O)N[C@H](CC(C)C)C(=O)NCC(=O)NCCOCCOCC(=O)N[C@@H](CCCCN)C(=O)NCCOCCOCC(=O)N[C@H](CCCNC(=N)N)C(=O)N[C@H](CC(C)C)C(=O)N[C@H](CC(C)C)C(=O)N[C@H](CCCNC(=N)N)C(=O)N[C@H](CCCCN)C(=O)N[C@H](CCCNC(=N)N)C(=O)N[C@H](CC(C)C)C(=O)N[C@H](CCCCN)C(=O)N[C@H](CCCNC(=N)N)C(=O)N[C@H](CC(C)C)C(=O)O [RI TPA-HA2-ApoE(141-150), TPA-mPEG-hwgghifhaiahflg-mPEG-K-mPEG-rllrkrlkrl] ([Mpa][AEEA][dH][dW]GG[dH][dI][dF][dH][dA][dI][dA][dH][dF][dL]G[AEEA]K[AEEA][dR][dL][dL][dR][dK][dR][dL][dK][dR][dL]-OH) | – | –
36 | CC[C@H](C)[C@H](NC(=O)[C@H](C)NC(=O)[C@H](Cc1c[nH]cn1)NC(=O)[C@H](Cc1ccccc1)NC(=O)[C@H](CC(C)C)NC(=O)CNC(C)=O)C(=O)N[C@@H](C)C(=O)N[C@@H](Cc1c[nH]cn1)C(=O)N[C@@H](Cc1ccccc1)C(=O)N[C@H](C(=O)N[C@@H](Cc1c[nH]cn1)C(=O)NCC(=O)NCC(=O)N[C@@H](Cc1c[nH]c2ccccc12)C(=O)N[C@@H](Cc1c[nH]cn1)C(=O)NCCOCCOCC(=O)N[C@@H](CCCCNC(=O)COCCOCCNC(=O)CCS)C(=O)NCCOCCOCC(=O)N[C@@H](CC(C)C)C(=O)N[C@@H](CCCNC(=N)N)C(=O)N[C@@H](CCCCN)C(=O)N[C@@H](CC(C)C)C(=O)N[C@@H](CCCNC(=N)N)C(=O)N[C@@H](CCCCN)C(=O)N[C@@H](CCCNC(=N)N)C(=O)N[C@@H](CC(C)C)C(=O)N[C@@H](CC(C)C)C(=O)N[C@@H](CCCNC(=N)N)C(=O)O)[C@@H](C)CC [Br-HA2-(TPA)-ApoE(141-150), Ac-GLFHAIAHFIHGGWH-mPEG-K(mPEG-TPA)-mPEG-LRKLRKRLLR] (Ac-GLFHAIAHFIHGGWH[AEEA]K([AEEA-Mpa])[AEEA]LRKLRKRLLR-OH) | – | –
96 | CC[C@@H](C)[C@@H](NC(=O)[C@@H](C)NC(=O)[C@@H](Cc1c[nH]cn1)NC(=O)[C@@H](Cc1ccccc1)NC(=O)[C@H](NC(=O)[C@@H](Cc1c[nH]cn1)NC(=O)CNC(=O)CNC(=O)[C@@H](Cc1c[nH]c2ccccc12)NC(=O)[C@@H](Cc1c[nH]cn1)NC(C)=O)[C@H](C)CC)C(=O)N[C@H](C)C(=O)N[C@H](Cc1c[nH]cn1)C(=O)N[C@H](Cc1ccccc1)C(=O)N[C@H](CC(C)C)C(=O)NCC(=O)NCCOCCOCC(=O)N[C@@H](CCCCNC(=O)COCCOCCNC(=O)CCS)C(=O)NCCOCCOCC(=O)N[C@H](CCCNC(=N)N)C(=O)N[C@H](CC(C)C)C(=O)N[C@H](CC(C)C)C(=O)N[C@H](CCCNC(=N)N)C(=O)N[C@H](CCCCN)C(=O)N[C@H](CCCNC(=N)N)C(=O)N[C@H](CC(C)C)C(=O)N[C@H](CCCCN)C(=O)N[C@H](CCCNC(=N)N)C(=O)N[C@H](CC(C)C)C(=O)N[C@H](Cc1c[nH]cn1)C(=O)N[C@H](CO)C(=O)N[C@H](C)C(=O)N[C@H](CC(C)C)C(=O)N[C@H](CCCNC(=N)N)C(=O)N[C@@H](C(=O)N[C@H](CCCNC(=N)N)C(=O)N[C@H](CC(C)C)C(=O)O)C(C)C [RI Br-HA2-(TPA)-ApoE(133-150), Ac-hwgghifhaiahflg-mPEG-K(mPEG-TPA)-mPEG-rllrkrlkrlhsalrvrl] (Ac-[dH][dW]GG[dH][dI][dF][dH][dA][dI][dA][dH][dF][dL]G[AEEA]K([AEEA-Mpa])[AEEA][dR][dL][dL][dR][dK][dR][dL][dK][dR][dL][dH][dS][dA][dL][dR][dV][dR][dL]-OH) | – | proteolytic stability compared to the parent L-peptides ([1]; 50% human serum, 37° C.): significantly higher proteolytic stability
– | Ac-HHHH-X-LRKLRKRLLR-X-C-PMO [H4-ApoE(141-150)-PMO] | – | level of exon-7 inclusion activity (full length SMN2/HPRT1, normalised to untreated control set to 1) (SMN2; 0.5 μM): 1.81±0.02; level of exon-7 inclusion activity (full length SMN2/HPRT1, normalised to untreated control set to 1) (SMN2; 1 μM): 2.0±0.05
– | Ac-VQRKRQKLMP-X-LRKLRKRLLR-X-C-PMO [NLS-ApoE(141-150)-PMO] | significant increase in the activity | –
– | Ac-AAAA-X-LRKLRKRLLR-X-C-PMO [A4-ApoE(141-150)-PMO] | significant decrease | –
– | Myr-LRKLRKRLLR-X-C-PMO [Myr-ApoE(141-150)-PMO] | – | exon-7 inclusion activity (full length SMN2/HPRT1, normalised to untreated control set to 1) (SMN2; concentration not given, compared to acetylated counterpart): 1.91±0.03
– | Ac-WEAALAEALAEALAEHLAEALAEALEALAA-X-C-PMO (Ac-WEAALAEALAEALAEHLAEALAEALEALAA[Ahx]C-{PMO}; reading uncertain; also: printed as Ac-WEAALAEALAEALAEHLAEALAEALEALAA-X-C-PMO) [GALA-PMO] | no significant increase | –
– | Ac-WEAALAEALAEALAEHLAEALAEALEALAA-X-LRKLRKRLLR-X-C-PMO [GALA-ApoE(141-150)-PMO] | significant increase in the activity | level of exon-7 inclusion activity (full length SMN2/HPRT1, normalised to untreated control set to 1) (SMN2; 0.5 μM): 1.41±0.04; level of exon-7 inclusion activity (full length SMN2/HPRT1, normalised to untreated control set to 1) (SMN2; 1 μM): 2.14±0.14

Molecule | half-life at 500 µM [1] [min] | exon-7 inclusion activity, change in words (SMN2) | also measured
CC[C@H](C)[C@H](NC(=O)[C@H](C)NC(=O)[C@H](Cc1c[nH]cn1)NC(=O)[C@H](Cc1ccccc1)NC(=O)[C@H](CC(C)C)NC(=O)CNC(=O)COCCOCCNC(=O)CCS)C(=O)N[C@@H](C)C(=O)N[C@@H](Cc1c[nH]cn1)C(=O)N[C@@H](Cc1ccccc1)C(=O)N[C@H](C(=O)N[C@@H](Cc1c[nH]cn1)C(=O)NCC(=O)NCC(=O)N[C@@H](Cc1c[nH]c2ccccc12)C(=O)N[C@@H](Cc1c[nH]cn1)C(=O)NCCOCCOCC(=O)N[C@@H](CC(C)C)C(=O)N[C@@H](CCCNC(=N)N)C(=O)N[C@H](C(=O)N[C@@H](CCCNC(=N)N)C(=O)N[C@@H](CC(C)C)C(=O)N[C@@H](C)C(=O)N[C@@H](CO)C(=O)N[C@@H](Cc1c[nH]cn1)C(=O)N[C@@H](CC(C)C)C(=O)N[C@@H](CCCNC(=N)N)C(=O)N[C@@H](CCCCN)C(=O)N[C@@H](CC(C)C)C(=O)N[C@@H](CCCNC(=N)N)C(=O)N[C@@H](CCCCN)C(=O)N[C@@H](CCCNC(=N)N)C(=O)N[C@@H](CC(C)C)C(=O)N[C@@H](CC(C)C)C(=O)N[C@@H](CCCNC(=N)N)C(=O)O)C(C)C)[C@@H](C)CC [TPA-HA2-ApoE(133-150), TPA-mPEG-GLFHAIAHFIHGGWH-mPEG-LR VRLASHLRKLRKRLLR] ([Mpa][AEEA]GLFHAIAHFIHGGWH[AEEA]LRVRLASHLRKLRKRLLR-OH) | 66 | – | –
